Measured values reported in PMC6492070 (Frontiers in Pharmacology, 2019).
“And” between values parts separate entries of the source, which are not always exact repeats. Identical values can stand only once. Like-named read-outs stand apart in the source and are kept apart here.

Legend:
[1] = test system: CYP2D
[2] = test system: CYP2D; assay: in vitro; conditions: both, hybrid sow × Piétrain boar, pig
[3] = test system: CYP3A; assay: in vitro; conditions: both, pig
[4] = in vivo; conditions: both, hybrid sow × Piétrain boars, pig; for k el: Ke
[5] = test system: CYP3A
[6] = both, hybrid sow × Piétrain boars, pig, in vivo
[7] = test system: CYP2C; assay: in vitro; conditions: both, hybrid sow × Piétrain boar, pig
[8] = test system: CYP2C
[9] = test system: CYP2A19
[10] = test system: CYP2A19; assay: in vitro; conditions: both, hybrid sow × Piétrain boar, pig
[11] = test system: CYP3A; remark: listed apart in the source
[12] = test system: CYP2A
[13] = test system: CYP2E
[14] = pig, in vivo; cited from earlier work
[15] = test system: CYP2D; remark: listed apart in the source
[16] = test system: IPEC-J2 cells; conditions: cited from earlier work
[17] = test system: CYP1A
[18] = test system: CYP2C; remark: listed apart in the source
[19] = both, hybrid sow × Piétrain boar, pig

COc1ccc2c(c1)[C@]13CCCC[C@@H]1[C@H](C2)N(C)CC3 [DXM, Dextromethorphan, reference compound]
Vmax [1]: 1971 (39.7) pmol/mg protein/min | Km [2]: 2 µM

Cc1ncc2n1-c1ccc(Cl)cc1C(c1ccccc1F)=NC2 [midazolam]
Km ([3]; hybrid sow × Piétrain boar, Km): 12.3 µM | AUC(0-inf) ([4]; iv, 0.036 mg/kg): 11.5 ng·h/mL | clearance ([4]; iv, 0.036 mg/kg, Cl): 767 mL/min | k el ([4]; iv, 0.036 mg/kg): 0.000231 s⁻¹ | MRT ([4]; iv, 0.036 mg/kg): 0.71 h | Vd ([4]; iv, 0.036 mg/kg, Vd): 60.8 L | AUC(0-inf) ([4]; iv): 18 ng·h/mL | k el ([4]; po, 0.15 mg/kg): 0.000108 s⁻¹ | MRT ([4]; po, 0.15 mg/kg): 3.58 h | Tmax ([4]; po, 0.15 mg/kg, Mean Tmax after removing the observation): 0.714 ± 0.559 h | Tmax ([4]; po, 0.15 mg/kg, Tmax): 1.15 h | Tmax ([4]; po, 0.15 mg/kg, Tmax of one pig): 4 h | Tmax ([4]; po, 0.15 mg/kg, Tmax range): 0.67 to 2 h | Tmax ([4]; po, 0.15 mg/kg, Tmax range of the other pigs): 0.16 to 1.5 h | Vmax [5]: 2155 (73.8) pmol/mg protein/min and 1899 (88.2) pmol/mg protein/min | Km [5, 19]: 11.3 µM | Cl ([6]; iv, 0.036 mg/kg): 45.5 (22.75) L/h | AUC (0-inf) in the ZEA group, times higher on average ([6]; po): about 2.5 times | Average Ka of the T-2 group, times higher compared to the control group ([6]; po): about 2.5 times

C[C@H]1CCCC(=O)CCC/C=C/c2cc(O)cc(O)c2C(=O)O1 [ZEA, zearalenone]
Ki ([3]; hybrid sow × Piétrain boars, microsomes): 1.1 µM | activity ([3]; hybrid sow × Piétrain boars, microsomes, Residual activity): < 30% | Inhibition type [5]: Partial mixed | α [5]: 3.8 (1.43) | β [5]: 0.26 (0.064) | mean OH-MDZ formation rate as % of [mycotoxine]=0 ([5]; both, hybrid sow × Piétrain boar cross, pig): 26.7981 | Residual activity ([5]; both, hybrid sow × Piétrain boars, pig, microsomes): 27.0 (3.16) % | DEX formation rate as % of [mycotoxine]=0 [1]: 37.1724 | Inhibition type [1]: Full non-competitive | Ki [7]: 0.54 µM | activity ([7]; Residual activity): < 30% | Inhibition type [8]: Partial competitive | α [8]: 9.5 (1.05) | Residual activity [8, 19]: 18.7 (0.35) % | Ki [2]: 55.4 µM | activity [2]: 32%

CCCC[C@@H](C)[C@@H](OC(=O)C[C@@H](CC(=O)O)C(=O)O)[C@H](C[C@@H](C)C[C@H](O)CCCC[C@@H](O)C[C@H](O)[C@H](C)N)OC(=O)C[C@@H](CC(=O)O)C(=O)O [FB1, fumonisin B1]
Inhibition type [9]: Full mixed | Ki [9]: 2.3 µM | Residual activity [9]: 22.8 (3.50) % | α [9]: 14.0 (4.30) | Inhibition (efficacy) ([9]; microsomes): 17%

O=c1ccc2ccccc2o1 [CM, coumarin, reference compound]
Vmax [9]: 359 (4.1) pmol/mg protein/min | Km [10]: 0.91 µM

CC(=O)OC[C@]12C[C@H](OC(=O)CC(C)C)C(C)=C[C@H]1O[C@@H]1[C@H](O)[C@@H](OC(C)=O)[C@@]2(C)[C@]12CO2 [T-2, T-2 toxin]
Formed metabolite OH-MDZ [11]: 163 ng/mL and 160.8 ng/mL and 268.8 ng/mL | OH-MDZ formation rate [11]: 953.858 pmol/min/mg protein and 940.984 pmol/min/mg protein and 1572.99 pmol/min/mg protein | OH-MDZ formation rate, PRE [11]: 348.773 pmol/min/mg protein and 383.884 pmol/min/mg protein and 308.395 pmol/min/mg protein | OH-MDZ, pre-incubation (ruwe data) [11]: 59.6 and 65.6 and 52.7 | Formed metabolite OH-CM [12]: 6.5 ng/mL and 7.1 ng/mL and 6.9 ng/mL | OH-CM formation rate [12]: 80.1776 pmol/min/mg protein and 87.5786 pmol/min/mg protein and 85.1116 pmol/min/mg protein | OH-CM formation rate, PRE [12]: 65.3756 pmol/min/mg protein and 55.5076 pmol/min/mg protein and 64.1421 pmol/min/mg protein | OH-CM, pre-incubation (ruwe data) [12]: 5.3 and 4.5 and 5.2 | Residual CYP enzyme activity, CM (CYP2A) [12]: 72.5% and 99.1% | Formed metabolite OH-CZ [13]: 25.3 ng/mL and 26.9 ng/mL | OH-CZ formation rate [13]: 272.688 pmol/min/mg protein and 289.933 pmol/min/mg protein | OH-CZ formation rate, PRE [13]: 237.12 pmol/min/mg protein and 232.809 pmol/min/mg protein and 217.719 pmol/min/mg protein | OH-CZ, pre-incubation (ruwe data) [13]: 22 and 21.6 and 20.2 | Residual CYP enzyme activity, CZ (CYP2E) [13]: 65.4% and 79.5% | Mean elimination half-life [14]: 0.23 h | Parent toxin in plasma and liver [14]: no parent toxin could be detected | DEX formation rate [15]: 838.482 pmol/min/mg protein and 812.838 pmol/min/mg protein and 850.138 pmol/min/mg protein | DEX formation rate, PRE [15]: 660.528 pmol/min/mg protein and 864.903 pmol/min/mg protein and 852.469 pmol/min/mg protein | DEX, pre-incubation (ruwe data) [15]: 85 and 111.3 and 109.7 | Formed metabolite DEX [15]: 107.9 ng/mL and 104.6 ng/mL and 109.4 ng/mL | Residual CYP enzyme activity, DXM (CYP2D) [15]: 94.2% and 99.1% | Inhibition type [5]: Full non-competitive | Ki [5]: 27 µM | Concentration significantly affecting epithelial integrity [16]: 10 ng/mL and 21.43 nM | Inhibition type [8]: Full competitive | Ki [8]: 14.8 µM | Residual activity [8]: 24.0 (1.38) % | Formed metabolite PAR [17]: 47.3 ng/mL and 46.6 ng/mL and 46.9 ng/mL | PAR formation rate [17]: 625.827 pmol/min/mg protein and 616.565 pmol/min/mg protein and 620.535 pmol/min/mg protein | PAR formation rate, PRE [17]: 523.948 pmol/min/mg protein and 490.871 pmol/min/mg protein and 492.194 pmol/min/mg protein | PAR, pre-incubation (ruwe data) [17]: 39.6 and 37.1 and 37.2 | Residual CYP enzyme activity, PH (CYP1A) [17]: 78.2% and 96.7% | Formed metabolite OH-TB [18]: 8.9 ng/mL and 12.9 ng/mL and 13.4 ng/mL | OH-TB formation rate [18]: 12.4325 pmol/min/mg protein and 18.0201 pmol/min/mg protein and 18.7185 pmol/min/mg protein | OH-TB formation rate, PRE [18]: 12.0134 pmol/min/mg protein and 12.2928 pmol/min/mg protein | OH-TB, pre-incubation (ruwe data) [18]: 8.6 and 8.8 | Residual CYP enzyme activity, TB (CYP2C) [18]: 46.3% and 62.3%

CCCCNC(=O)NS(=O)(=O)c1ccc(C)cc1 [TB, tolbutamide, reference compound]
Km ([7]; Km): 1070 µM | Vmax [8]: 160 (16.0) pmol/mg protein/min and 132 (17.9) pmol/mg protein/min | Km [8, 19]: 804 µM
